Experimental data from patent US12139492B2 (Endotarget Inc., priority 2021, dated 2024).
Where two headings read alike, the source gives them in different places.

Experiments:
Mino cells = assay: Antiproliferative effect, MTS cell viability assay, Mino cells; type: cell-based; details: Homo sapiens, Mino mantle cell lymphoma cells, read-out: IC50 (anti-proliferation) Mino cells
Protocol: (§1) Antiproliferative effect of the exemplary compounds was assessed in B-cell malignancy models.
(§2) To assess the effect of the exemplary compounds on cell viability in B-cell malignancy models by degradation of BTK protein, Mino and JeKo-1 cells were treated with varying concentrations of Ibrutinib (0, 0.001, 0.01, 0.1, 1, 10 μM). Under these conditions, cell viability was determined by an MTS assay. Cytotoxicity was assayed by the determination of reduced tetrazolium (formazan) created by metabolically active cells as detected at 490 nm absorbance using a microplate reader (BMG Labtech, Cary, NC, USA).
(§3) The exemplary compounds attenuated the viability of Mino and JeKo-1 cells in a concentration-dependent manner at 72 h post treatment. Results are shown in Table 1 for each exemplary compound.

JeKo-1 cells = assay: Antiproliferative effect, MTS cell viability assay, JeKo-1 cells; type: cell-based; details: Homo sapiens; JeKo-1 mantle cell lymphoma cells; read-out: IC50 (anti-proliferation) JeKO-1 cells
Protocol: as §1, §2, §3

BTK = BTK (Homo sapiens, UniProt Q06187); assay: Degradation of BTK protein in Namalwa cells (Western blot; DC50, Dmax); details: for DC50: cell line not given
[1] = read-out: DC50 (BTK degradation), concentration giving 50% reduction of BTK expression level
[2] = read-out: Dmax (BTK degradation)

Sequence of BTK (Q06187 whole entry): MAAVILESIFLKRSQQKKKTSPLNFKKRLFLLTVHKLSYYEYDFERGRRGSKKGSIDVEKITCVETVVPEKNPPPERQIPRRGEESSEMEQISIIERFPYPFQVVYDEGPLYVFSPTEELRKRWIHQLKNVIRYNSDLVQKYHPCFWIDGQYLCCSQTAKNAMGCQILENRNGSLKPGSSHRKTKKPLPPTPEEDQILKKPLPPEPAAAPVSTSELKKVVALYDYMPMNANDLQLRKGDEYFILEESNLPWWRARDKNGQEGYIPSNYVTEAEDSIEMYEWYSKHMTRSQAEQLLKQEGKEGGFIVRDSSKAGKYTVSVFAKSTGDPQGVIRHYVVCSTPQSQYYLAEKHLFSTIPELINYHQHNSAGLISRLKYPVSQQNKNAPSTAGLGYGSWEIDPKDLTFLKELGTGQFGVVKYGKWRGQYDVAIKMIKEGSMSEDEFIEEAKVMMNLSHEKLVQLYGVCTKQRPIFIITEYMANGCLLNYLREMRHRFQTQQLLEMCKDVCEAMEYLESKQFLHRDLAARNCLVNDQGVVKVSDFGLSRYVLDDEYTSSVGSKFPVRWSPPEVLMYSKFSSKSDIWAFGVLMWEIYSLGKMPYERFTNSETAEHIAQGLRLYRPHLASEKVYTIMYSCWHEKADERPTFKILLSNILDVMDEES

| SMILES | Dmax (BTK) | DC50 (BTK; BTK degradation) | DC50 (BTK; [1]) | Dmax (BTK; [2]) | IC50 (Mino cells; MINO) | IC50 (JeKo-1 cells) | IC50 (Mino cells) | degradation of BTK protein (BTK; Namalwa B lymphocyte cells, various concentrations, 24 hours, Western blot) |
| --- | --- | --- | --- | --- | --- | --- | --- | --- |
| Nc1ncnc2c1c(-c1ccc(Oc3ccccc3)cc1)nn2C1CCN(C2CCN(CCN3CCC(c4ccc(N5CCC(=O)NC5=O)cc4)CC3)C2)CC1 (stereo not drawn) [Compound 574, 1-(4-(1-(2-(3-(4-(4-amino-3-(4-phenoxyphenyl)-1H-pyrazolo[3,4-d]pyrimidin-1-yl)piperidin-1-yl)pyrrolidin-1-yl)ethyl)piperidin-4-yl)phenyl)dihydropyrimidine-2,4(1H,3H)-dione] |  |  | 10 to 50 nM | > 90% | 1000 to 10000 nM | 1000 to 10000 nM |  |  |
| Nc1ncnc2c1c(-c1ccc(Oc3ccccc3)cc1)nn2C1CCN(CCN2CC(N3CCN(c4ccc5c(c4)C(=O)N(C4CCC(=O)NC4=O)C5=O)CC3)C2)CC1 (stereo not drawn) [Compound 463, 5-(4-(1-(2-(4-(4-amino-3-(4-phenoxyphenyl)-1H-pyrazolo[3,4-d]pyrimidin-1-yl)piperidin-1-yl)ethyl)azetidin-3-yl)piperazin-1-yl)-2-(2,6-dioxopiperidin-3-yl)isoindoline-1,3-dione] |  |  | 10 to 50 nM | > 90% | < 1000 nM | < 1000 nM |  |  |
| Nc1ncnc2c1c(-c1ccc(Oc3ccccc3)cc1)nn2C1CCN(C2CCN(C(=O)N3CCN(CCCN4CCN(c5ccc6c(c5)C(=O)N(C5CCC(=O)NC5=O)C6=O)CC4)CC3)CC2)CC1 (stereo not drawn) [Compound 257, 5-(4-(3-(4-(4-(4-amino-3-(4-phenoxyphenyl)-1H-pyrazolo[3,4-d]pyrimidin-1-yl)-[1,4′-bipiperidine]-1′-carbonyl)piperazin-1-yl)propyl)piperazin-1-yl)-2-(2,6-dioxopiperidin-3-yl)isoindoline-1,3-dione] | > 75% | > 50 nM |  |  | > 10000 nM | > 10000 nM |  |  |
| NC(=O)c1c(-c2ccc(Oc3ccccc3)cc2)nn2c1NCC[C@H]2C1CCN(C(=O)N2CCN(CCN3CCN(c4ccc5c(c4)C(=O)N(C4CCC(=O)NC4=O)C5=O)CC3)CC2)CC1 (stereo partly drawn) [Compound 297, (7S)-7-(1-(4-(2-(4-(2-(2,6-dioxopiperidin-3-yl)-1,3-dioxoisoindolin-5-yl)piperazin-1-yl)ethyl)piperazine-1-carbonyl)piperidin-4-yl)-2-(4-phenoxyphenyl)-4,5,6,7-tetrahydropyrazolo[1,5-a]pyrimidine-3-carboxamide] | > 90% | 10 to 50 nM |  |  | 1000 to 10000 nM | 1000 to 10000 nM |  |  |
| Nc1ncnc2c1c(-c1ccc(Oc3ccccc3)cc1)nn2C1CCN(C2CCN(CC3CCN(c4ccc5c(c4)CN(C4CCC(=O)NC4=O)C5=O)CC3)CC2)CC1 (stereo not drawn) [Compound 214] | < 50% | > 50 nM |  |  |  | 1000 to 10000 nM | 1000 to 10000 nM | dose-dependent degradation |
| Nc1ncnc2c1c(-c1ccc(Oc3ccccc3)cc1)nn2C1CCN(C2CCN(C(=O)N3CCN(CCCN4CCC(c5ccc6c(c5)CN(C5CCC(=O)NC5=O)C6=O)CC4)CC3)CC2)CC1 (stereo not drawn) [Compound 262, 3-(5-(1-(3-(4-(4-(4-amino-3-(4-phenoxyphenyl)-1H-pyrazolo[3,4-d]pyrimidin-1-yl)-[1,4′-bipiperidine]-1′-carbonyl)piperazin-1-yl)propyl)piperidin-4-yl)-1-oxoisoindolin-2-yl)piperidine-2,6-dione] | > 75% | > 50 nM |  |  | > 10000 nM | 1000 to 10000 nM |  |  |
| NC(=O)c1c(-c2ccc(Oc3ccccc3)cc2)nn2c1NCC[C@H]2C1CCN(C(=O)N2CCN(CC3CCN(c4ccc5c(c4)CN(C4CCC(=O)NC4=O)C5=O)CC3)CC2)CC1 (stereo partly drawn) [Compound 290, (7S)-7-(1-(4-((1-(2-(2,6-dioxopiperidin-3-yl)-1-oxoisoindolin 5-yl)piperidin-4-yl)methyl)piperazine-1-carbonyl)piperidin-4-yl)-2-(4-phenoxyphenyl)-4,5,6,7-tetrahydropyrazolo[1,5-a]pyrimidine-3-carboxamide] | > 90% | < 10 nM |  |  | 1000 to 10000 nM | < 1000 nM |  |  |
| Nc1ncnc2c1c(-c1ccc(Oc3ccccc3)cc1)nn2C1CCN(CC2CCN(CCN3CCN(c4ccc5c(c4)C(=O)N(C4CCC(=O)NC4=O)C5=O)CC3)CC2)CC1 (stereo not drawn) [Compound 203, 5-(4-(2-(4-((4-(4-amino-3-(4-phenoxyphenyl)-1H-pyrazolo[3,4-d]pyrimidin-1-yl)piperidin-1-yl)methyl)piperidin-1-yl)ethyl)piperazin-1-yl)-2-(2,6-dioxopiperidin-3-yl)isoindoline-1,3-dione] | > 90% | 10 to 50 nM |  |  | 1000 to 10000 nM | 1000 to 10000 nM |  |  |
| Nc1ncnc2c1c(-c1ccc(Oc3ccccc3)cc1)nn2C1CCN(CCN2CCC(CSc3ccc4c(c3)C(=O)N(C3CCC(=O)NC3=O)C4=O)CC2)CC1 (stereo not drawn) [Compound 469, 5-(((1-(2-(4-(4-amino-3-(4-phenoxyphenyl)-1H-pyrazolo[3,4-d]pyrimidin-1-yl)piperidin-1-yl)ethyl)piperidin-4-yl)methyl)thio)-2-(2,6-dioxopiperidin-3-yl)isoindoline-1,3-dione] |  |  | < 10 nM | > 90% | 1000 to 10000 nM | 1000 to 10000 nM |  |  |

Now from value to molecule, other results behind:

| Dmax (BTK) | DC50 (BTK; BTK degradation) | DC50 (BTK; [1]) | Dmax (BTK; [2]) | SMILES | IC50 (Mino cells; MINO) | IC50 (JeKo-1 cells) | IC50 (Mino cells) | degradation of BTK protein (BTK; Namalwa B lymphocyte cells, various concentrations, 24 hours, Western blot) |
| --- | --- | --- | --- | --- | --- | --- | --- | --- |
| > 90% | 10 to 50 nM |  |  | Nc1ncnc2c1c(-c1ccc(Oc3ccccc3)cc1)nn2C1CCN(CC2CCN(CCCC3CCN(c4ccc5c(c4)CN(C4CCC(=O)NC4=O)C5=O)CC3)CC2)CC1 (stereo not drawn) [Compound 212, 3-(5-(4-(3-(4-((4-(4-amino-3-(4-phenoxyphenyl)-1H-pyrazolo[3,4-d]pyrimidin-1-yl)piperidin-1-yl)methyl)piperidin-1-yl)propyl)piperidin-1-yl)-1-oxoisoindolin-2-yl)piperidine-2,6-dione] | 1000 to 10000 nM | > 10000 nM |  |  |
| > 90% | 10 to 50 nM |  |  | NC(=O)c1c(-c2ccc(Oc3ccccc3)cc2)nn2c1NCCC2C1CCN(C(=O)N2CCN(CC3CCN(c4ccc5c(c4)C(=O)N(C4CCC(=O)NC4=O)C5=O)CC3)CC2)CC1 (stereo not drawn) [Compound 273, 7-(1-(4-((1-(2-(2,6-dioxopiperidin-3-yl)-1,3-dioxoisoindolin-5-yl)piperidin-4-yl)methyl)piperazine-1-carbonyl)piperidin-4-yl)-2-(4-phenoxyphenyl)-4,5,6,7-tetrahydropyrazolo[1,5-a]pyrimidine-3-carboxamide] | < 1000 nM | 1000 to 10000 nM |  |  |
|  |  | < 10 nM | > 90% | Nc1ncnc2c1c(-c1ccc(Oc3ccccc3)cc1)nn2C1CCN(C2CCN(CCN3CCN(c4ccc(NC5CCC(=O)NC5=O)cc4)CC3)CC2)CC1 (stereo not drawn) [Compound 581, 3-((4-(4-(2-(4-(4-amino-3-(4-phenoxyphenyl)-1H-pyrazolo[3,4-d]pyrimidin-1-yl)-[1,4′-bipiperidin]-1′-yl)ethyl)piperazin-1-yl)phenyl)amino)piperidine-2,6-dione] | < 1000 nM | < 1000 nM |  |  |
|  |  | 10 to 50 nM | > 90% | Nc1ncnc2c1c(-c1ccc(Oc3ccccc3)cc1)nn2C1CCN(CC2CCN(CC3CCN(c4ccc(NC5CCC(=O)NC5=O)cc4)CC3)C2)CC1 (stereo not drawn) [Compound 562, 3-((4-(4-((3-((4-(4-amino-3-(4-phenoxyphenyl)-1H-pyrazolo[3,4-d]pyrimidin-1-yl)piperidin-1-yl)methyl)pyrrolidin-1-yl)methyl)piperidin-1-yl)phenyl)amino)piperidine-2,6-dione] | 1000 to 10000 nM | 1000 to 10000 nM |  |  |
| > 75% | 10 to 50 nM |  |  | Nc1ncnc2c1c(-c1ccc(Oc3ccccc3)cc1)nn2C1CCN(C2CCN(CCN3CCC(c4ccc5c(c4)CN(C4CCC(=O)NC4=O)C5=O)CC3)CC2)CC1 (stereo not drawn) [Compound 220, 3-(5-(1-(2-(4-(4-amino-3-(4-phenoxyphenyl)-1H-pyrazolo[3,4-d]pyrimidin-1-yl)-[1,4′-bipiperidin]-1′-yl)ethyl)piperidin-4-yl)-1-oxoisoindolin-2-yl)piperidine-2,6-dione] | 1000 to 10000 nM | 1000 to 10000 nM |  |  |
|  |  | 10 to 50 nM | > 90% | NC1=NC=NC2C1C(c1ccc(Oc3ccccc3)cc1)=NN2[C@@H]1CCCN(C(=O)N2CC(C3CN(c4ccc5c(c4)C(=O)N(C4CCC(=O)NC4=O)C5=O)C3)C2)C1 (stereo partly drawn) [Compound 497, 5-(1′-((3R)-3-(4-amino-3-(4-phenoxyphenyl)-3a,7a-dihydro-1H-pyrazolo[3,4-d]pyrimidin-1-yl)piperidine-1-carbonyl)-[3,3′-biazetidin]-1-yl)-2-(2,6-dioxopiperidin-3-yl)isoindoline-1,3-dione] | < 1000 nM | < 1000 nM |  |  |
| > 90% | 10 to 50 nM |  |  | Nc1ncnc2c1c(-c1ccc(Oc3ccccc3)cc1)nn2C1CCN(C2CCN(CCCN3CCN(c4ccc5c(c4)CN(C4CCC(=O)NC4=O)C5=O)CC3)CC2)CC1 (stereo not drawn) [Compound 222, 3-(5-(4-(3-(4-(4-amino-3-(4-phenoxyphenyl)-1H-pyrazolo[3,4-d]pyrimidin-1-yl)-[1,4′-bipiperidin]-1′-yl)propyl)piperazin-1-yl)-1-oxoisoindolin-2-yl)piperidine-2,6-dione] | 1000 to 10000 nM | 1000 to 10000 nM |  |  |
|  |  | < 10 nM | > 90% | Nc1ncnc2c1c(-c1ccc(Oc3ccccc3)cc1)nn2C1CCN(CC2CN(CC3CCN(c4ccc5c(c4)CN(C4CCC(=O)NC4=O)C5=O)C3)C2)CC1 (stereo not drawn) [Compound 444, 3-(5-(3-((3-((4-(4-amino-3-(4-phenoxyphenyl)-1H-pyrazolo[3,4-d]pyrimidin-1-yl)piperidin-1-yl)methyl)azetidin-1-yl)methyl)pyrrolidin-1-yl)-1-oxoisoindolin-2-yl)piperidine-2,6-dione] | < 1000 nM | < 1000 nM |  |  |
